# Reference: patent publication US10647738B2, “Xylene-based amphiphilic compound and use thereof” (Industry-University Cooperation Foundation Hanyang …, priority 2016, dated 2020)
# “And” between values parts separate entries of the source, which are not always exact repeats. Equal entries are not always repeated.
# Assays:
# [1] = Hydrodynamic radius and size distribution of micelles by dynamic light scattering (DLS); type: physicochemical; conditions: for Rh (nm), hydrodynamic radius of micelles: 1.0 wt % stated for M-/O-XMAs (FIG. 37); for size distribution of micelles (number of micelle sets): FIGS. 36 and 37
# Description: A method for measuring the radius of a micelle is not particularly limited, but a method well known in the art may be used, and for example, the measurement may be performed using a dynamic light scattering (DLS) experiment.
# (§1) Specifically, the critical micellar concentration (CMC) was measured using fluorescence staining and diphenylhexatriene (DPH), and the hydrodynamic radii (Rh) of the micelles formed by agents were measured through a dynamic light scattering (DLS) experiment. The measured results are shown in Tables 1 and 2, compared with a conventional amphiphilic molecule (detergent), DDM.
# [2] = Critical micelle concentration by fluorescence staining with diphenylhexatriene (DPH); type: physicochemical; conditions: aqueous solution
# Description: While a method for measuring CMC is not particularly limited, a method widely known in the art may be used, and the measurement may be performed by, for example, a fluorescence staining method using diphenylhexatriene (DPH).
# as §1
# [3] = biological target: T1, melibiose permease (MelB) (Salmonella typhimurium, UniProt P30878); experiment: MelB extraction from membranes and thermostability, SDS-PAGE and western blotting; conditions: for MelBSt stabilization ability compared with DDM: 1.5 wt % detergent, 0, 45, 55 and 65° C.
# T1 construct: made in house; host or cells: Salmonella typhimurium DW2 cells (ΔmelB and ΔlacZY) (so in the source); membrane preparation
# Description: An experiment for measuring the structural stability of the Salmonella typhimurium melibiose permease (MelB) protein due to XMAs was performed. The MelB protein was extracted on a membrane using XMAs and DDM, and the amount and structure of the extracted protein were analyzed by SDS-PAGE and western blotting. A concentration of the used compound was 1.5 wt %, and the protein was extracted at a different temperature (0, 45, 55, or 65° C.) to evaluate two kinds of performance such as protein extraction efficiency and stabilization ability of the compound at the same time. Membrane samples that were not treated with XMAs or DDM were used as controls.
# Specifically, MelBSt stability due to DDM and XMAs was evaluated according to the method described in the paper (P. S. Chae, et al., Nat. Methods 2010, 7, 1003-1008) written by the inventor in 2010. The protein (MelBSt) was produced using plasmid pK95ΔAHB/WT MelBSt/CH10 encoding wild-type MelB with a 10-His tag at the C-terminus and Salmonella typhimurium DW2 cells (ΔmelB and ΔlacZY). Cell growth and membrane preparation were carried out according to the method described in the paper (Nat. Commun. 2014, 5, 3009) written by A. S. Ethayathulla et al. A protein assay was performed using a Micro BCA kit (Thermo Scientific, Rockford, Ill.). To measure solubilization/stability, MelBSt-containing membrane samples (final protein concentration of 10 mg/mL) were incubated with a solubilization buffer (20 mM sodium phosphate, pH 7.5, 200 mM NaCl, 10% glycerol, 20 mM melibiose) and 1.5% (w/v) DDM, P-XMAs (P-XMA-C8, P-XMA-C9, P-XMA-C10, P-XMA-C11 and P-XMA-C12), M-XMAs (M-XMA-C11, M-XMA-C12, M-XMA-C14, M-XMA-C16 and M-XMA-C18) or O-XMAs (O-XMA-C11, O-XMA-C12, O-XMA-C14, O-XMA-C16 and O-XMA-C18) at four different temperatures (0, 45, 55 and 65° C.) for 90 minutes. Following ultracentrifugation at 355,590 g in a Beckman Optima™ MAX ultracentrifuge using a TLA-100 rotor for 45 minutes at 4° C., 20 μg proteins were separated by SDS-16% PAGE, and then immunoblotted with a Penta-His-HRP antibody (Qiagen, Germantown, Md.). MelBSt was detected using a SuperSignal West Pico chemiluminescent substrate by an ImageQuant LAS 4000 Biomolecular Imager (GE Health Care Life Sciences).
# [4] = 1.5 wt % detergent, 0° C., 90 minutes
# [5] = 1.5 wt % detergent, 55° C., 90 minutes
# [6] = 1.5 wt % detergent, 45° C., 90 minutes
# T1 sequence (P30878 whole entry): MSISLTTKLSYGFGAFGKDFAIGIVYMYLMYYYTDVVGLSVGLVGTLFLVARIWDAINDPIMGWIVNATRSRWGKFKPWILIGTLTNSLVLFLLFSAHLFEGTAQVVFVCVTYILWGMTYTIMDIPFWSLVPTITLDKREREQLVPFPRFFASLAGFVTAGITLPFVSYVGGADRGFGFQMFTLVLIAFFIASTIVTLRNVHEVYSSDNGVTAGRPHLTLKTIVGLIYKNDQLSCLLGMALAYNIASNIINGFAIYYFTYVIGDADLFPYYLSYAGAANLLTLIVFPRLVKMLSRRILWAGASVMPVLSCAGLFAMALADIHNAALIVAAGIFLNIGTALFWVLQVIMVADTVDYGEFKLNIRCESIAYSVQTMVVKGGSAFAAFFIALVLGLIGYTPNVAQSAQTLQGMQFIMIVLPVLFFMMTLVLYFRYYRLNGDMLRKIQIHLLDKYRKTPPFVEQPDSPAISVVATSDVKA
smiles,measurement,setting,value
CCCCCCCCCCCC(CO[C@@H]1OC(CO)[C@@H](O[C@@H]2OC(CO)[C@@H](O)C(O)C2O)C(O)C1O)(CO[C@@H]1OC(CO)[C@@H](O[C@@H]2OC(CO)[C@@H](O)C(O)C2O)C(O)C1O)Cc1ccccc1C[C@](CCCCCCCCCCC)(CO[C@@H]1OC(CO)[C@@H](O[C@H]2OC(CO)[C@@H](O)C(O)C2O)C(O)C1O)CO[C@@H]1OC(CO)[C@@H](O[C@@H]2OC(CO)[C@@H](O)C(O)C2O)C(O)C1O (stereo partly shown) [O-XMA-C11],"Rh (nm), hydrodynamic radius of micelles",[1],3.0 ± 0.02 nm
same,CMC (wt %),[2],~0.0019 wt %
CCCCCCCCCCCCCCCC[C@@](CO[C@@H]1OC(CO)[C@@H](O[C@H]2OC(CO)[C@@H](O)C(O)C2O)C(O)C1O)(CO[C@@H]1OC(CO)[C@@H](O[C@@H]2OC(CO)[C@@H](O)C(O)C2O)C(O)C1O)Cc1cccc(C[C@](CCCCCCCCCCCCCCCC)(CO[C@@H]2OC(CO)[C@@H](O[C@H]3OC(CO)[C@@H](O)C(O)C3O)C(O)C2O)CO[C@@H]2CC(CO)[C@@H](O[C@H]3OC(CO)[C@@H](O)C(O)C3O)C(O)C2O)c1 (stereo partly shown) [M-XMA-C16],"Rh (nm), hydrodynamic radius of micelles",[1],3.9 ± 0.04 nm
same,MelB protein extraction efficiency,[3]; [4],protein extraction efficiency at almost the same level as DDM
same,CMC,[2],~2.0 µM
same,CMC (wt %),[2],~0.0004 wt %
CCCCCCCCCCCCCCCCCCC(CO[C@@H]1OC(CO)[C@@H](O[C@@H]2OC(CO)[C@@H](O)C(O)C2O)C(O)C1O)(CO[C@@H]1OC(CO)[C@@H](O[C@@H]2OC(CO)[C@@H](O)C(O)C2O)C(O)C1O)Cc1cccc(CC(CCCCCCCCCCCCCCCCCC)(CO[C@@H]2OC(CO)[C@@H](O[C@@H]3OC(CO)[C@@H](O)C(O)C3O)C(O)C2O)CO[C@@H]2OC(CO)[C@@H](O[C@@H]3OC(CO)[C@@H](O)C(O)C3O)C(O)C2O)c1 (stereo partly shown) [M-XMA-C18],"Rh (nm), hydrodynamic radius of micelles",[1],4.1 ± 0.04 nm
same,MelB protein extraction efficiency,[3]; [4],protein extraction efficiency at almost the same level as DDM
same,CMC,[2],~1.5 µM
same,CMC (wt %),[2],~0.0003 wt %
CCCCCCCCCCCCCCCCCCC(CO[C@@H]1OC(CO)[C@@H](O[C@@H]2OC(CO)[C@@H](O)C(O)C2O)C(O)C1O)(CO[C@@H]1OC(CO)[C@@H](O[C@@H]2OC(CO)[C@@H](O)C(O)C2O)C(O)C1O)Cc1ccccc1CC(CCCCCCCCCCCCCCCCCC)(CO[C@@H]1OC(CO)[C@@H](O[C@@H]2OC(CO)[C@@H](O)C(O)C2O)C(O)C1O)CO[C@@H]1OC(CO)[C@@H](O[C@@H]2OC(CO)[C@@H](O)C(O)C2O)C(O)C1O (stereo partly shown) [O-XMA-C18],"Rh (nm), hydrodynamic radius of micelles",[1],3.9 ± 0.04 nm
same,CMC (wt %),[2],~0.0003 wt %
CCCCCCCCCCCCCCC(CO[C@@H]1OC(CO)[C@@H](O[C@H]2OC(CO)[C@@H](O)C(O)C2O)C(O)C1O)(CO[C@@H]1OC(CO)[C@@H](O[C@H]2OC(CO)[C@@H](O)C(O)C2O)C(O)C1O)Cc1cccc(C[C@](CCCCCCCCCCCCCC)(CO[C@@H]2OC(CO)[C@@H](O[C@H]3OC(CO)[C@@H](O)C(O)C3O)C(O)C2O)CO[C@@H]2OC(CO)[C@@H](O[C@@H]3OC(CO)[C@@H](O)C(O)C3O)C(O)C2O)c1 (stereo partly shown) [M-XMA-C14],"Rh (nm), hydrodynamic radius of micelles",[1],3.6 ± 0.07 nm
same,"solubilized MelB retained, percentage of total protein in untreated membrane sample","[3]; 1.5 wt % detergent, 55° C.",approximately 70%
same,MelB protein extraction / maintained solubilization,[3]; [5],most effective
same,CMC,[2],~2.5 µM
same,CMC (wt %),[2],~0.0005 wt %
CCCCCCCCCCCCCCCCC(CO[C@@H]1OC(CO)[C@@H](O[C@@H]2OC(CO)[C@@H](O)C(O)C2O)C(O)C1O)(CO[C@@H]1OC(CO)[C@@H](O[C@@H]2OC(CO)[C@@H](O)C(O)C2O)C(O)C1O)Cc1ccccc1CC(CCCCCCCCCCCCCCCC)(CO[C@@H]1OC(CO)[C@@H](O[C@@H]2OC(CO)[C@@H](O)C(O)C2O)C(O)C1O)CO[C@@H]1OC(CO)[C@@H](O[C@@H]2OC(CO)[C@@H](O)C(O)C2O)C(O)C1O (stereo partly shown) [O-XMA-C16],"Rh (nm), hydrodynamic radius of micelles",[1],3.9 ± 0.06 nm
same,CMC,[2],~2.0 µM
same,CMC (wt %),[2],~0.0004 wt %
CCCCCCCCCCCCCCC(CO[C@@H]1OC(CO)[C@@H](O[C@@H]2OC(CO)[C@@H](O)C(O)C2O)C(O)C1O)(CO[C@@H]1OC(CO)[C@@H](O[C@@H]2OC(CO)[C@@H](O)C(O)C2O)C(O)C1O)Cc1ccccc1CC(CCCCCCCCCCCCCC)(CO[C@@H]1OC(CO)[C@@H](O[C@@H]2OC(CO)[C@@H](O)C(O)C2O)C(O)C1O)CO[C@@H]1OC(CO)[C@@H](O[C@@H]2OC(CO)[C@@H](O)C(O)C2O)C(O)C1O (stereo partly shown) [O-XMA-C14],"Rh (nm), hydrodynamic radius of micelles",[1],3.5 ± 0.04 nm
same,CMC,[2],~3.0 µM
same,CMC (wt %),[2],~0.0006 wt %
CCCCCCCCC(CO[C@@H]1OC(CO)[C@@H](O[C@H]2OC(CO)[C@@H](O)C(O)C2O)C(O)C1O)(CO[C@@H]1OC(CO)[C@@H](O[C@H]2OC(CO)[C@@H](O)C(O)C2O)C(O)C1O)Cc1ccc(C[C@](CCCCCCCC)(CO[C@H]2CC(O)[C@H](O[C@H]3OC(CO)[C@@H](O)C(O)C3O)C(CO)O2)CO[C@@H]2OC(CO)[C@@H](O[C@H]3OC(CO)[C@@H](O)C(O)C3O)C(O)C2O)cc1 (stereo partly shown) [P-XMA-C8],micelle size compared with DDM,[1],smaller than DDM
same,"Rh (nm), hydrodynamic radius of micelles",[1],2.7 nm and 2.7 ± 0.04 nm
same,size distribution of micelles (number of micelle sets),[1],one set of micelles
same,CMC (wt %),[2],~0.004 wt %
CCCCCCCCCC(CO[C@@H]1OC(CO)[C@@H](O[C@H]2OC(CO)[C@@H](O)C(O)C2O)C(O)C1O)(CO[C@@H]1OC(CO)[C@@H](O[C@H]2OC(CO)[C@@H](O)C(O)C2O)C(O)C1O)Cc1ccc(CC(CCCCCCCCC)(CO[C@@H]2OC(CO)[C@@H](O[C@H]3OC(CO)[C@@H](O)C(O)C3O)C(O)C2O)CO[C@@H]2OC(CO)[C@@H](O[C@H]3OC(CO)[C@@H](O)C(O)C3O)C(O)C2O)cc1 (stereo partly shown) [P-XMA-C9],micelle size compared with DDM,[1],smaller than DDM
same,"Rh (nm), hydrodynamic radius of micelles",[1],3.2 ± 0.01 nm
same,size distribution of micelles (number of micelle sets),[1],one set of micelles
same,MelBSt stabilization ability compared with DDM,[3],higher MelBSt stabilization ability than DDM
same,MelB protein extraction efficiency,[3]; [6],extraction efficiency at the same level as DDM
same,MelB protein extraction / maintained solubilization,[3]; [5],higher MelBSt extraction ability than DDM
same,CMC,[2],~10 µM
same,CMC (wt %),[2],~0.002 wt %
CCCCCCCCCCC(CO[C@@H]1OC(CO)[C@@H](O[C@H]2OC(CO)[C@@H](O)C(O)C2O)C(O)C1O)(CO[C@@H]1OC(CO)[C@@H](O[C@H]2OC(CO)[C@@H](O)C(O)C2O)C(O)C1O)Cc1ccc(CC(CCCCCCCCCC)(CO[C@@H]2OC(CO)[C@@H](O[C@H]3OC(CO)[C@@H](O)C(O)C3O)C(O)C2O)CO[C@@H]2OC(CO)[C@@H](O[C@H]3OC(CO)[C@@H](O)C(O)C3O)C(O)C2O)cc1 (stereo partly shown) [P-XMA-C10],"Rh (nm), hydrodynamic radius of micelles",[1],3.5 ± 0.01 nm
same,size distribution of micelles (number of micelle sets),[1],two sets of micelles having different radii
same,MelBSt stabilization ability compared with DDM,[3],higher MelBSt stabilization ability than DDM
same,MelB protein extraction efficiency,[3]; [6],extraction efficiency at the same level as DDM
same,MelB protein extraction / maintained solubilization,[3]; [5],higher MelBSt extraction ability than DDM
same,MelB protein extraction,"[3]; 1.5 wt % detergent, 65° C., 90 minutes",extracted MelBSt
same,CMC,[2],~7 µM
same,CMC (wt %),[2],~0.001 wt %
